Measured values taken from PMC7304243, “Dimeric γ-AApeptides With Potent and Selective Antibacterial Activity” (Frontiers in Chemistry, 2020).
Like-named read-outs stand apart in the source and are kept apart here.

Columns and labels:
MRSA [1] = assay: Drug resistance study, 20 passages; format: cell-based, Staphylococcus aureus
Method: Drug resistance has already been recognized as one of the fastest growing threats all over the world. […] The MIC of compound 2 was determined daily, and then the bacteria suspension with half of the MIC was diluted to 10^6 CFU/mL and incubated with compound to test its activity until 20 passages had been reached.
The experiment was carried out by following our previously reported protocol (Su et al., [2017]; Niu et al., [2018]). The study was conducted for 20 passages.

MRSA [2] = assay: Membrane depolarization study, DiSC3(5); format: cell-based, Staphylococcus aureus; conditions: MRSA 10^6 CFU/mL, 1 μM DiSC3(5), compound added after 30 min, ex 622 nm / em 670 nm
Description: HDPs are known to act on the bacterial membrane. As the mimics of HDPs, compounds 1–14 were also expected to kill bacteria through disintegrating the bacterial cell membrane. To this end, 3, 3′- Dipropylthiadicarbocyanine iodide [DiSC3(5)] was used as a fluorogenic probe to detect and measure changes in transmembrane potential. Briefly, fluorescence intensity is very weak when it accumulates on hyperpolarized membranes due to their self-quenching (Niu et al., [2018]). […] This method was used to initially determine the bacterial membrane permeability caused by the compound 2.
Mid log phase MRSA bacteria solution was obtained as above. Then, cells were collected and washed with 5 mM HEPES and 5 mM glucose respectively. 5 mM HEPES:5 mM glucose:100 mM KCl = 1:1:1 was used to resuspended bacteria cells (10^6 CFU/mL). Following that, 200 μL of bacterial suspension and 1 μM DiSC3(5) were included in a 96-well plate, and the fluorescence of the suspension was monitored at room temperature for 30 min at excitation wavelength of 622 nm and emission wavelength of 670 nm. After 30 min, compound 2 was added to the wells and the increased potential was monitored. The experiment was repeated three times with duplicates each time.

MRSA [3] = assay: TEM study; format: cell-based, Staphylococcus aureus; conditions: MRSA 10^6 CFU/mL, 6 μg/mL, 2 h
Method: Transmission electron microscopy (TEM) is a straightforward method to visualize the interruptive effect of compounds on the membrane of bacteria. Mid log phase MRSA without the treatment of compound 2 had intact membrane (Figure 5A).
After being incubated to mid log phase, MRSA(10^6 CFU/mL) was mixed with 6 μg/mL compound 2 for 2 h. Then the bacteria cells were collected and washed with PBS and DI water. Following that, bacteria was resuspended in deionized water. Control bacterial samples were obtained without adding drugs. Above samples were applied to TEM grids by 5 μL bacteria solution, and the grids were allowed to dry in vacuum oven at the temperature of 45°C for 45 seconds. After being dried, TEM images were obtained on a FEI Morgagni 268D TEM with an Olympus MegaView III camera at 60 kV on the microscope. The microscope used AnalySiS software to run the camera.

MRSA [4] = assay: Fluorescence microscopy, DAPI and PI; format: cell-based, Staphylococcus aureus; conditions: 6 μg/mL, 2 h
Method: Experiments of fluorescent microscopy is also a broadly used method to determine the integrity of bacteria membrane. Propidium iodide (PI) and 4′,6-diamidino-2-henylindole (DAPI) are commercially available dyes that stain dead or injured cells with compromised membrane and all cells irrespective of their viability, respectively. The efficacy of compound 2 to interrupt the bacterial membrane was evaluated by these two dyes.
Fluorescent dyes propidium iodide (PI) and 4′,6′-diamidino-2-phenylindole dihydrochloride (DAPI) can be used to distinguish the viable cell from the dead cells. After obtaining the mid-logarithmic phase bacteria solution as above, the bacteria solution was diluted 100 times and mixed with compound 2 at the concentration of 6 μg/mL. Then the mixture was incubated 2 h and centrifuged at 1,690 g (3,000 rpm) for 15 min at 4°C to harvest the cells. After washing with PBS for 3 times, PI (5 μg/mL) and DAPI (10 μg/mL) was used to dye cells 20 min respectively. Controls were carried out without compounds. The bacterial cells were then visualized and analyzed by employing the LEICA DM 2000 optical microscope with an oil-immersion objective (40 ×). The experiment was repeated three times with duplicates each time.

MRSA [5] = assay: Time-kill kinetics; format: cell-based, Staphylococcus aureus
Method: Time-kill kinetic study of compound 2 were investigated. After being incubated from one colony in 4 mL TSB medium overnight at 37 °C while shaking, MRSA was diluted 2,500 times to another fresh 4 mL TSB solution and grew for 6~8 h to mid-logarithmic phase. Suspension [10^6 colony-forming units per milliliter (CFU/mL) according to the read of OD value] was made and then incubated with different concentration of 2 at 37°C for 10 min, 30 min, 60 min, 120 min respectively. The MRSA and drug mixture were diluted 10^2-fold and spread on the TSB agar plates. These plates were incubated at 37°C overnight. The numbers of colonies on each plate were transferred to lg[CFU/mL] and plotted against the incubation time. The experiment was repeated three times with duplicates each time.

[6] = tested on: vancomycin-resistant E. faecalis (VRE, ATCC 700802); format: cell-based; conditions: lowest concentration that completely inhibits growth, repeated three times
Method: (§1) Having obtained all compounds, their antibacterial efficacy was subsequently evaluated by measuring the minimum inhibitory concentration (MIC). Three significant resistant bacteria, including methicillin-resistant Staphylococcus aureus (MRSA) (ATCC 33591), Staphylococcus epidermidis (MRSE) (RP62A), and vancomycin-resistant E. faecalis (VRE) (ATCC 700802), were chosen for our studies. Meanwhile, hemolytic activity (HC50) was also measured to assess the selectivity of these compounds toward bacteria and blood cells. […] Importantly, HC50 of almost all compounds are equal or more than 250 μg/mL. […] This is consistent with our previous findings that significant hydrophobicity, particularly two long alkyl tails, could form hydrophobic clusters that prevent the formation of amphipathic structures necessary for antimicrobial activity (Li et al., [2014b]; Singh et al., [2018]). […] MICs of 10–14 unveiled that proper bulky hydrophobic groups were beneficial in the design of bactericide. These five compounds have the same (3r,5r,7r)-1-methyladamantane side chain but different tails, including C9, as well as C11 alkyl chain, ethylbenzene, and (3r,5r,7r)-1-methyladamantane. Among them, 10, which had no tail, was the best toward MRSA and MRSE, with the MICs of 5 μg/mL and 2 μg/mL respectively. […] Compounds 7 and 8 also shared a similar trend. It appears that compounds with bulky groups have better activity, due to the lager molecular volume or shorter molecular length of these bulky groups. Therefore, the selection of proper hydrophobic bulky groups when designing HDP-mimicking agents is considerably crucial (Wu et al., [2012]; Teng et al., [2016a]).
(§2) The antimicrobial assay of the compounds was conducted on the following three bacteria strains: methicillin-resistant S.aureus (MRSA, ATCC 33591), methicillin-resistant S. epidermidis (MRSE, RP62A), and vancomycin-resistant E. faecalis (VRE, ATCC 700802). The procedures were followed as reported previously. […] All measurements were repeated at least three times with duplicates each time.

[7] = tested on: methicillin-resistant S. aureus (MRSA, ATCC 33591); format: cell-based, Staphylococcus aureus; conditions: lowest concentration that completely inhibits growth, repeated three times
Method: as §1, §2

[8] = tested on: methicillin-resistant S. epidermidis (MRSE, RP62A); format: cell-based, Staphylococcus epidermidis; conditions: lowest concentration that completely inhibits growth, repeated three times
Method: as §1, §2

[9] = tested on: red blood cell (RBC) of mice; assay: Hemolysis study (HC50); format: cell-based
Method: Fresh red blood cell (RBC) of mice was collected by centrifuge with the speed of 500 g for 10 mins until the supernatant is clear. Then, the RBC was diluted with PBS for 20-fold. After adding 50 μL PBS in each vial on 96 plates, 1 mg/mL compounds were serial diluted until reaching the lowest concentration 1.9 μg/mL. Diluted RBC was added into each vial and incubated at 37°C for 1 h. Then, plates were centrifuged at 2,301 g (3,500 rpm) for 10 mins. 30 uL supernatant in each vial was added into 100 μL PBS and read Biotek Synergy HT plate reader at 540 nm. The hemolytic activity was calculated by the formula % hemolysis = (Abssample-AbsPBS) / (AbsTriton-AbsPBS) × 100%. 1% Triton X-100 were used as the positive control and 1 × PBS buffer was used as the negative control.

[10] = mouse RBC in PBS, 37°C, 1 h, absorbance 540 nm, 1% Triton X-100 positive control

Row | Compound | MIC VRE [6] | MIC MRSA [7] | MIC MRSE [8] | Hemolysis (HC50) [9, 10] | other results
1 | CCCCCCCCCC(=O)N(CC(=O)Nc1ccc(NC(=O)CN(C[C@@H](N)CCCCN)C(=O)CCCCCCCCC)cc1)C[C@@H](N)CCCCN [Compound 2, N,N'-((1,4-phenylenebis(azanediyl))bis(2-oxoethane-2,1-diyl))bis(N-(2,6-diaminohexyl)decanamide)] |  |  |  |  | Change of MIC values after 20 passages (MRSA [1]; 20 passages at half of the MIC): almost unchanged; DiSC3(5) fluorescence intensity after adding compound (MRSA [2]): fluorescence intensity increased dramatically; TEM observation of treated MRSA (MRSA [3]): large amount of cell debris can be detected; DAPI / PI staining of treated MRSA (MRSA [4]): fluorescence could be detected in both channels; Time-kill result at 6 μg/mL (MRSA [5]; MRSA 10^6 CFU/mL, 6 μg/mL, 37°C, up to 120 min): still colonies after 120 mins; Time in which all bacteria were eradicated (MRSA [5]; MRSA 10^6 CFU/mL, 12 μg/mL, 37°C): ≤ 120 min; Time in which all bacteria were eradicated (MRSA [5]; MRSA 10^6 CFU/mL, 24 μg/mL, 37°C): ≤ 120 min; Time to eradicate MRSA (MRSA [5]; abstract statement, concentration not given): ≤ 2 h
2 | CCCCCCCCCCCCCC(=O)N(CC(=O)Nc1ccc(NC(=O)CN(C[C@@H](N)CCCCN)C(=O)CCCCCCCCCCCCC)cc1)C[C@@H](N)CCCCN [Compound 4, N,N'-((1,4-phenylenebis(azanediyl))bis(2-oxoethane-2,1-diyl))bis(N-(2,6-diaminohexyl)tetradecanamide)] | >25 µg/mL | >25 µg/mL | >25 µg/mL | >250 µg/mL | 
3 | CCCCCCCCCCCCCCCC(=O)N(CC(=O)Nc1ccc(NC(=O)CN(C[C@@H](N)CCCCN)C(=O)CCCCCCCCCCCCCCC)cc1)C[C@@H](N)CCCCN [Compound 5, N,N'-((1,4-phenylenebis(azanediyl))bis(2-oxoethane-2,1-diyl))bis(N-(2,6-diaminohexyl)palmitamide)] | >25 µg/mL | >25 µg/mL | >25 µg/mL | >250 µg/mL | 
4 | CCCCCCCCCC(=O)N[C@@H](CCCCN)CN(CC(=O)Nc1ccc(NC(=O)CN(C[C@H](CCCCN)NC(=O)CCCCCCCCC)C(=O)CC23CC4CC(CC(C4)C2)C3)cc1)C(=O)CC12CC3CC(CC(C3)C1)C2 [Compound 11, N,N'-((((1,4-phenylenebis(azanediyl))bis(2-oxoethane-2,1-diyl))bis ((2-((3r,5r,7r)-adamantan-1-yl)acetyl)azanediyl))bis(6-aminohexane-1,2-diyl))bis(decanamide)] | >25 µg/mL | >25 µg/mL | >25 µg/mL | >250 µg/mL | 
5 | CCn1cc(C(=O)O)c(=O)c2cc(F)c(N3CCNCC3)cc21 [norfloxacin, reference compound] |  |  |  |  | Increase of MIC after 20 passages (MRSA [1]; 20 passages): 10 fold
6 | N-(2-(2-((1s,3s)-adamantan-1-yl)acetamido)-6-aminohexyl)-N-(2-((4-(2-(N-(2-(2-((3r,5r,7r)-adamantan-1-yl)acetamido)-6-aminohexyl) decanamido) acetamido) phenyl) amin)−2-oxoethyl)decanamide [Compound 7] | 20 µg/mL | 10 µg/mL | 2 µg/mL |  | Hemolysis (HC50) [9]: 250 µg/mL
